Measured values from patent US20240158348A1, “HERBICIDAL CYCLIC AMIDES N-SUBSTITUTED WITH A HALOALKYLSULFONYLANILIDE GROUP” (FMC Corporation, priority 2021, published 2024).

Legend:
Format in all cases: in vivo
[1] = test system: ryegrass, Italian (Italian ryegrass, Lolium multiflorum); assay: Test C preemergence, Italian ryegrass; conditions: 0 is no effect, 100 is complete control
Summary of the method: (§1)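 Ratings run from 0, meaning no effect, up to 100, meaning complete control, judged by eye against untreated plants. Treatment was a directed soil spray before emergence or a postemergence spray on 2–10 cm seedlings, with evaluation 10 or 12 days later.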

[2] = test system: ryegrass, Italian (Italian ryegrass, Lolium multiflorum); assay: Test C postemergence, Italian ryegrass; conditions: for Ryegrass, Italian plant response rating: visual injury, 0 to 100 scale (0 no effect, 100 complete control); for Plant response rating (0 to 100 scale), Ryegrass, Italian: 0 is no effect, 100 is complete control
Summary of the method: as §1

[3] = test system: sedge, umbrella (small-flower umbrella sedge, Cyperus difformis); assay: Test D flooded paddy test, umbrella sedge; design: key: 0 = no effect, 100 = complete control; conditions: 250 g ai/ha, Flood; applied to paddy water at 2-leaf stage; visual rating after 13 days; scale 0 (no effect) to 100 (complete control)
Summary of the method: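 Plants were grown to the 2-leaf stage, then pots were flooded to 3 cm above soil and compounds applied directly into the paddy water, with that depth held throughout. After 13 days in a greenhouse, injury was visually rated against untreated controls on a 0–100 scale (0 no effect, 100 complete control).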

[4] = test system: blackgrass (Alopecurus myosuroides); assay: Test C postemergence, blackgrass; conditions: 125 g ai/ha Postemergence; 0 is no effect, 100 is complete control

| SMILES | Plant response rating (0 to 100 scale), Ryegrass, Italian ([1]; 31 g ai/ha Preemergence) | Plant response rating (0 to 100 scale), Ryegrass, Italian ([1]; 125 g ai/ha Preemergence) | Ryegrass, Italian plant response rating ([2]; 31 g ai/ha Postemergence) | Ryegrass, Italian plant response rating ([2]; 125 g ai/ha Postemergence) | Plant response rating, Sedge, Umbrella [3] | Plant response rating (0 to 100 scale), Blackgrass [4] | Plant response rating (0 to 100 scale), Ryegrass, Italian ([2]; 125 g ai/ha Postemergence) |
| --- | --- | --- | --- | --- | --- | --- | --- |
| Cc1cc(C)c(N2CCC(OC3CC3)C2=O)cc1NS(=O)(=O)C(F)(F)F (single isomer, unassigned) [Compound 30] | 100 | 100 | 90 | 100 | 98 | 90 |  |
| CO/N=C1\CCN(c2cc(NS(=O)(=O)C(F)(F)F)c(C)cc2C)C1=O [Compound 9, 1,1,1-trifluoro-N-[5-[3-(methoxyimino)-2-oxo-1-pyrrolidinyl]-2,4-dimethylphenyl]methanesulfonamide] | 60 | 100 | 50 |  | 85 | 90 | 80 |
| Cc1cc(C)c(N2CC/C(=N\O)C2=O)cc1NS(=O)(=O)C(F)(F)F [Compound 10, 1,1,1-trifluoro-N-[5-[3-(hydroxyimino)-2-oxo-1-pyrrolidinyl]-2,4-dimethylphenyl]methanesulfonamide] | 50 | 100 | 80 |  | 80 | 90 | 80 |
| C=CCO/N=C1\CCN(c2cc(NS(=O)(=O)C(F)(F)F)c(C)cc2C)C1=O [Compound 11] | 40 | 90 | 0 |  | 100 | 90 | 30 |
| CCO/N=C1\CCN(c2cc(NS(=O)(=O)C(F)(F)F)c(C)cc2C)C1=O [Compound 12, N-[5-[3-(ethoxyimino)-2-oxo-1-pyrrolidinyl]-2,4-dimethylphenyl]-1,1,1-trifluoromethanesulfonamide] | 90 | 100 | 70 |  | 100 | 100 | 80 |
| C#CCO/N=C1\CCN(c2cc(NS(=O)(=O)C(F)(F)F)c(C)cc2C)C1=O [Compound 13, N-[2,4-dimethyl-5-[2-oxo-3-[(2-propyn-1-yloxy)imino]-1-pyrrolidinyl]phenyl]-1,1,1-trifluoromethanesulfonamide] | 40 | 100 | 60 |  | 100 | 90 | 60 |
| Cc1cc(C)c(N2CCC(O)C2=O)cc1NS(=O)(=O)C(F)(F)F (stereo not shown) [Compound 14] | 40 | 100 | 60 |  | 35 | 70 | 100 |
| COC(=O)N(c1cc(N2CCC(OC3CC3)C2=O)c(C)cc1C)S(=O)(=O)C(F)(F)F (stereo not shown) [Compound 16] | 0 | 0 | 0 |  | 0 | 0 | 0 |
| CC(=O)N(c1cc(N2CCC(OC3CC3)C2=O)c(C)cc1C)S(=O)(=O)C(F)(F)F (stereo not shown) [Compound 17] | 100 | 100 | 60 |  | 95 | 80 | 90 |
| CCOC(=O)N(c1cc(N2CCC(OC3CC3)C2=O)c(C)cc1C)S(=O)(=O)C(F)(F)F (stereo not shown) [Compound 19] | 0 | 0 | 0 |  | 0 | 40 | 50 |
| Cc1cc(C)c(N(C(=O)OCC(C)C)S(=O)(=O)C(F)(F)F)cc1N1CCC(OC2CC2)C1=O (stereo not shown) [Compound 21] | 70 | 100 | 50 |  | 98 | 80 | 100 |
| Cc1c(N2CCC(OC3CC3)C2=O)cc(N(COC(=O)C(C)(C)C)S(=O)(=O)C(F)(F)F)c(C)c1F (stereo not shown) [Compound 23] | 30 | 100 | 50 |  | 95 | 50 | 100 |
| C=C(C)COC1CCN(c2cc(NS(=O)(=O)C(F)(F)F)c(C)cc2C)C1=O (stereo not shown) [Compound 59] | 30 | 100 | 10 | 70 | 95 |  |  |
| CC#CCOC1CCN(c2cc(NS(=O)(=O)C(F)(F)F)c(C)cc2C)C1=O (stereo not shown) [Compound 60] | 70 | 100 | 50 | 70 | 95 |  |  |
| Cc1cc(C)c(N2CCC(OCc3ccccc3)C2=O)cc1NS(=O)(=O)C(F)(F)F (stereo not shown) [Compound 61] | 60 | 90 | 0 | 60 | 90 |  |  |
| Cc1c(NS(=O)(=O)C(F)(F)F)cc(N2CCC(OCC3CC3)C2=O)c(C)c1F (stereo not shown) [Compound 63] | 50 | 100 | 0 | 10 | 95 |  |  |
| Cc1c(NS(=O)(=O)C(F)(F)F)cc(N2CCC(OCC3CCC3)C2=O)c(C)c1F (stereo not shown) [Compound 64] | 50 | 90 | 0 | 20 | 95 |  |  |
